Patent publication US20230212216A1, “SYNTHESIS OF LACTONE DERIVATIVES AND THEIR USE IN THE MODIFICATION OF PROTEINS” (priority 2019, published 2023)
Where two headings read alike, the source gives them in different places. Where no end group is shown, it is not given here.

How the values were obtained:
[1] = Reversibility of 6-AGDL acylated G-H6 and non-His-tagged peptides; assay type: physicochemical; conditions: 6-AGDL acylated peptide, 14 days at room temperature, 1M HEPES pH 7.5
Experimental: 100 μM of G-H6-Beltide-1, GGKWSKR-Beltide-1 and GGTYSDH-Beltide-1 peptides were reacted at 4° C. with 6-AGDL in 1M HEPES, pH 7.5 by sequentially adding 100 mM 6-AGDL twice in 3 h intervals. Extra 6-AGDL was not removed, and the samples were stored at room temperature throughout the experiment.
2 μL from each sample were taken at each time point except for day 14. 10 μL of 2% acetic acid was added to each timepoint sample and the mixtures were desalted by C18 ZipTip chromatography. Eluate was analyzed by MALDI-TOF MS as before.
At day 14 the remaining samples underwent recovery procedure where all of the reaction mixtures were acidified by adding 20% of reaction volume of 50% (v/v) acetic acid [final concentration 7.57% acetic acid (v/v)] and then adding 10% reaction volume of 100% acetonitrile [final concentration ACN […]]. Of this mixture, 15 μL aliquots were taken, cleaned by ZipTip C18 Chromatography and analyzed by MALDI-TOF-MS instrumentation.

[2] = tested on: GDL acylated G-H6-Beltide-1; assay: Effect of copper ions on reversibility of acylation; assay type: physicochemical; conditions: various CuSO4 concentrations, pH 7.5, 37° C.
Experimental: FIG. 3: Reversibility of GDL:G-H6-Beltide-1 in the presence of various CuSO4 and EDTA concentrations at pH 7.5. GDL acylated G-H6-Beltide-1 was produced as before, extra GDL was removed by C18 reverse phase purification and the acylated peptide (20 μM) was stored in 50 mM HEPES (NaOH) buffer supplemented with various concentrations of CuSO4 and EDTA at 37° C. Change in acylation status was monitored by MALDI-TOF MS TIC and is reported as the relative m/z ratio of the acylated (m1) and non-acylated species (m2) ([m1/z/(m1/z+m2/z)]*100%).
1 mM G-H6-Beltide-1 (˜1 mg of peptide) was acylated with 100 mM GDL in 200 mM HEPES (NaOH) pH 7.5 for 1 h at room temperature in a total volume of ˜300 μL. Upon addition of buffer to peptide but before addition of GDL, precipitation was clearly observed. This precipitation may be due to the theoretical pI of G-H6-Beltide-1 being close to pH 7.5, or because G-H6-Beltide-1 is a Beltide-1 variant. Beltide-1 is known to form nanodiscs in solution upon contact with membrane proteins or lipid components (Midtgaard et al. 2014; Martos-Maldonado et al. 2018). GDL was added to 100 mM from a freshly prepared 1 M stock solution. The solution remained cloudy. […] The acylated peptide was analyzed by MALDI-MS and initial acylation extent was estimated to be ˜96%, stored at −20° C. until further usage. […]

[3] = tested on: GDL-acylated GSS-H6-Beltide-1 peptide; assay: Effect of nickel ions on reversibility of acylation; assay type: physicochemical; conditions: 0.01-1 mM NiSO4, pH 7.5, 37° C., up to day 7
Experimental: GSS-H6-Beltide-1 peptide was GDL-acylated and extra GDL was removed via C18 SepPack chromatography. GDL-acylated peptide was dissolved in 100 mM HEPES (NaOH), pH 7.5, 10% ACN (v/v) to a final concentration of ˜100 μM and aliquoted into 0.5 mL LoBind (Eppendorf) microcentrifuge tubes. NiSO4 was supplemented to 0, 0.01, 0.1, and 1 mM final concentration from a 100 mM NiSO4 stock in H2O. A control sample was supplemented with a pre-mixed solution of NiSO4 and EDTA, to give a final concentration of 1 mM NiSO4 and 5 mM EDTA [stock solution 10 mM NiSO4 and 50 mM EDTA (NaOH neutralized)]. The samples (50 μL volume each) were kept in a water bath at 37° C. Aliquots of 2 μL were taken on day 1, 3, 5, and 7, mixed with 10 μL of 5% acetic acid, purified by C18 ZipTip chromatography and analyzed by MALDI-TOF-MS instrumentation.

[4] = tested on: N-terminally gluconoyl-labelled Beltide-1 derivative peptide PP6; assay: Boron-containing reagents to modulate reversibility (heat-accelerated deacylation); assay type: physicochemical; conditions: 5 mM additive, 50 μM peptide; for Remaining gluconoyl-label, pH 7.5 after 15 h at 50° C.: 50 mM HEPES/NaOH buffer; for Remaining gluconoyl-label, pH 6.8 after 15 h at 50° C.: 50 mM phosphate/KOH buffer
Experimental: To explore the reversibility modulating effect of various boron-containing molecules, a small library of reagents was tested at pH 7.5 (50 mM HEPES/NaOH buffer) and pH 6.8 (50 mM phosphate/KOH buffer).
Reaction supplemented with 5 mM of additive; calculated as the ratio of the TIC for the labelled divided by the sum of TICs of both labelled and unlabeled species.

[5] = tested on: non-activated HEK-produced RBD; assay: Endpoint anti-RBD ELISA of sera of immunized mice; design: species or system SARS-CoV-2; conditions: in vivo
Pseudovirus = assay: Pseudovirion neutralization assay; assay type: cell-based, SARS-CoV-2; conditions: mice sera day 42, after a total of 3 immunizations
Experimental: The conjugate material was then used to immunize mice at 10 μg per dose formulated in AddaVax (Invivogen) according to the manufacturer on Day 0. Boosts with the same dose and formulation were performed on day 14 and day 28. Sera samples were taken before each immunization for immunological studies. Animals were sacrificed on day 42.
Pseudovirion neutralization assays were performed with samples obtained at day 42 according to standard procedures known in the art.

[6] = tested on: GDL-acylated GSS-H6-Beltide-1 peptide; assay: Effect of zinc ions on reversibility of acylation; assay type: physicochemical; conditions: day 7
Experimental: GSS-H6-Beltide-1 peptide was GDL-acylated and extra GDL was removed via C18 SepPack chromatography. GDL:peptide was dissolved in 100 mM HEPES (NaOH), pH 7.5 with or without ZnSO4 (0.2 mM and 2 mM) to a final concentration of ˜100 μM. ACN was added to 10% v/v to reduce possible nanodisc formation and precipitation of the peptide to the plastic microcentrifuge wall. The reaction mixtures (100 μL volume each) were kept in a water bath at 37° C. Aliquots of 2 μL were taken at day 3, mixed with 10 μL of 5% acetic acid, purified by C18 ZipTip chromatography and analyzed by MALDI-TOF-MS instrumentation. […] The remaining reaction mixture (80 μL) was acidified by adding 50% (v/v) acetic acid. The amount of acetic acid to be added was calculated as 20% of the remaining reaction volume [final concentration 7.57% acetic acid v/v]. Likewise, 10% reaction volume of 100% acetonitrile were added (final concentration acetonitrile ˜16.6% v/v) and the reaction was mixed by quick vortexing. Of this mixture, 15 μL aliquots were processed via C18 ZipTip chromatography and analyzed by MALDI-TOF-MS instrumentation. We speculate that the peptide had bound to the microcentrifuge wall and assumed that the precipitation affected both acylated and non-acylated species equally.

[7] = tested on: 6-AGDL acylated GSS-H6-Beltide-1
Experimental: The volume was then made up to 15 mL to give a 1 M stock solution.
pH 6 buffer was made by preparing a 1 M stock solution of citric acid monohydrate and by making a solution of 1 M sodium citrate dihydrate. The two solutions were mixed to give a 1 M stock solution of pH 6.
pH 7.5 buffer was made by mixing a 1 M stock solution of potassium phosphate monobasic with 1 M solution of potassium phosphate dibasic to give a pH of 7.5.
pH 8.8 buffer was prepared by titrating 1 M solution of acetic acid with ammonium solution to give pH 8.8.
20 μM 6-AGDL modified peptide was stored in 100 μL aliquots in 200 mM buffer as indicated. The vials (triplicates) were incubated in a 37° C. water bath throughout the experiment and were retrieved for sample acquisition for <30 mins at room temperature before they were returned to the water bath.
10 μL of subsamples for pH 4, 6 and 8.8 were acidified with 5 μL of 20% (v/v) acetic acid and subjected to C18 ZipTip purification. Samples were analyzed in positive reflectron mode with MALDI-TOF MS.
pH 7.5 samples were stored in the presence of 10% ACN (v/v) to counteract precipitation. For pH 7.5 samples, 15 μL aliquots were taken for each time point and desalted using 0.1% TFA-70% ACN/0.1% TFA C18 Zip-Tip procedure. 0.5 μL of the Eluate was mixed 1:1 with C1CCA matrix mixture and spotted onto a MALDI steel target prior to detection in reflector positive mode MALDI-TOF MS.

serine protease trypsin = conditions: 50 mM boric acid

Compound: GGKWSKRDWLKAFYDKVAEKLKEAF [GGKWSKR-Beltide-1]
- remaining acylation [1]: ~64%

Compound: GGTYSDHDWLKAFYDKVAEKLKEAF [GGTYSDH-Beltide-1]
- remaining acylation [1]: 75%

Compound: GHHHHHHDWLKAFYDKVAEKLKEAF [PP1]
- remaining acylation [1]: 27%

Compound: O=S(=O)([O-])[O-].[Cu+2] [CuSO4]
- rate of reversibility [2]: decreasing rate of reversibility as a function of increasing CuSO4 concentration

Compound: O=S(=O)([O-])[O-].[Ni+2] [NiSO4]
- reversibility of acylation [3]: seemingly abolished reversibility

Compound: CB(O)O [methylboronic acid]
- Remaining gluconoyl-label, pH 7.5 after 15 h at 50° C. [4]: ~59%
- Remaining gluconoyl-label, pH 6.8 after 15 h at 50° C. [4]: ~6%

Compound: Qbeta: Qbeta VLPs (SEQ ID NO: 86) produced in E. coli
- anti-RBD response (ELISA titers) after a single injection [5]: did not show a measurable response
- % of neutralization at dilution 1:300 (Pseudovirus): 17.24%

Compound: O=Cc1ccccc1B(O)O [2-formylphenylboronic acid]
- Remaining gluconoyl-label, pH 7.5 after 15 h at 50° C. [4]: ~99%
- Remaining gluconoyl-label, pH 6.8 after 15 h at 50° C. [4]: ~95%

Compound: OB(O)c1ccccc1 [phenylboronic acid]
- Remaining gluconoyl-label, pH 7.5 after 15 h at 50° C. [4]: ~83%
- Remaining gluconoyl-label, pH 6.8 after 15 h at 50° C. [4]: ~31%

Compound: O=S(=O)([O-])[O-].[Zn+2] [ZnSO4]
- remaining gluconoylation ([6]; 0.2 mM ZnSO4, pH 7.5, 37° C.): ~80%
- remaining gluconoylation ([6]; 2 mM ZnSO4, pH 7.5, 37° C.): ~75%

Compound: OB1OCc2cc(F)ccc21 [tavaborole, 5-Fluoro-1,3-dihydro-1-hydroxy-2,1-benzoxaborole]
- Remaining gluconoyl-label, pH 7.5 after 15 h at 50° C. [4]: ~87%
- Remaining gluconoyl-label, pH 6.8 after 15 h at 50° C. [4]: ~87.9%

Compound: O=Cc1ccc(B(O)O)cc1 [4-formylphenylboronic acid]
- Remaining gluconoyl-label, pH 7.5 after 15 h at 50° C. [4]: ~95%
- Remaining gluconoyl-label, pH 6.8 after 15 h at 50° C. [4]: ~46%

Compound: OB(O)O [boric acid, Boric acid]
- reversibility of acylation ([7]; >50 mM boric acid, pH 8.8, 7 days, 37° C.): effectively inhibited
- reversibility of acylation ([7]; pH 4, 37° C.): no effect was observed
- reversibility of acylation ([7]; pH 6, 37° C.): modulated the reversibility
- Remaining gluconoyl-label, pH 7.5 after 15 h at 50° C. [4]: ~69%
- Remaining gluconoyl-label, pH 6.8 after 15 h at 50° C. [4]: ~8%
- inhibition of trypsin (serine protease trypsin): did not measurably inhibit
